Measurements from patent publication US20090275497A1, “METHOD FOR IDENTIFYING MODULATORS OF THE ACTIVITY OF ION-CHANNELS RECEPTORS” (CENTRE NATIONAL DE LA RECHERCHE SCIENTIFIQUE (CNRS), priority 2004, published 2009).

What was measured:
[1] = test system: oocyte not expressing P2X and GABA receptors; test: Calcium green fluorescence recording, oocytes expressing no receptors; assay type: cell-based, Xenopus; conditions: calcium green probe, FIG. 1
Procedure: (§1) Then, using video-microscopy (Nikon), the fluorescence emitted by oocytes maintained in a standard solution (Ringer solution containing 1.8 mM calcium chloride), perfused at 3 ml/min, has been recorded. […] Variations in fluorescence were analysed using IpLab software.

[2] = test system: P2X2 and GABA-A receptors (rat GABA-A alpha2 beta3); assay type: cell-based; conditions: for fluorescence of the calcium probe on application of the substance alone: 100 μM, oocytes co-expressing P2X2 and GABA-A receptors, resting potential
Procedure: (§2) Variations in fluorescence were analysed using IpLab software.

rat P2X2 receptors = molecular target: T1, rat P2X2 receptors (Rattus norvegicus, UniProt P49653); test: Calcium green fluorescence recording, oocytes expressing P2X2 receptors alone; assay type: cell-based; conditions: oocytes expressing only P2X2 receptors, FIG. 2; for fluorescence (calcium influx) on application of the substance alone: calcium green probe
T1 construct: expressed in transfected cells; host or cells: Xenopus oocytes (nuclear cDNA injection)
T1 sequence (P49653 1-472): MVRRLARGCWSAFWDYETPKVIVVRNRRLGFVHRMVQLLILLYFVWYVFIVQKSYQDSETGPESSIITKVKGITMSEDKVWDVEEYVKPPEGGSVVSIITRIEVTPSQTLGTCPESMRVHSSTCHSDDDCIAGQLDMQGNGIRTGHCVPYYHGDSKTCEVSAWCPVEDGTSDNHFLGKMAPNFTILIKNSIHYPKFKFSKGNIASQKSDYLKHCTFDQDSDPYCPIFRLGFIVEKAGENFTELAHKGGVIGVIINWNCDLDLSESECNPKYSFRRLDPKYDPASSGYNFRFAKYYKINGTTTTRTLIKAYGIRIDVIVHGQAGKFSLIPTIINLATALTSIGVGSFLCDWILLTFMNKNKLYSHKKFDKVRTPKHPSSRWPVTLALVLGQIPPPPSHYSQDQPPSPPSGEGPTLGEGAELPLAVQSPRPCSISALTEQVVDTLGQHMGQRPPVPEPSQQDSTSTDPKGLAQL
Procedure: as §1

[3] = molecular target: T2, P2X2 and GABA-A receptors (rat GABA-A alpha2 beta3) (Rattus norvegicus, UniProt P23576+P63079); assay type: cell-based
T2 construct: expressed in transfected cells; host or cells: Xenopus oocytes (nuclear cDNA injection)
T2 sequence (P23576 29-451): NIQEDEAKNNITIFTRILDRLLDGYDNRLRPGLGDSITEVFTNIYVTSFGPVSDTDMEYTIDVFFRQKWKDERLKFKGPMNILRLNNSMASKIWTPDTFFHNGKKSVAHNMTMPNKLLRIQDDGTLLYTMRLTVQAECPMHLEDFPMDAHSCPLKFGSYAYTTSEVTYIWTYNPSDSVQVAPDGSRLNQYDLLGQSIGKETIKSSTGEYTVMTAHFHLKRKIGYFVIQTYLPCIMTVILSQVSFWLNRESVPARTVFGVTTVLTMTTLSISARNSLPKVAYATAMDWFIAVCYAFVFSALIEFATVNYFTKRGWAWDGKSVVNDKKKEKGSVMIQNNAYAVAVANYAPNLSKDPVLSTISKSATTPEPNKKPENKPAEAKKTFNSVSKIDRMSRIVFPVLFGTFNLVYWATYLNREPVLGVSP
T2 sequence (P63079 26-473): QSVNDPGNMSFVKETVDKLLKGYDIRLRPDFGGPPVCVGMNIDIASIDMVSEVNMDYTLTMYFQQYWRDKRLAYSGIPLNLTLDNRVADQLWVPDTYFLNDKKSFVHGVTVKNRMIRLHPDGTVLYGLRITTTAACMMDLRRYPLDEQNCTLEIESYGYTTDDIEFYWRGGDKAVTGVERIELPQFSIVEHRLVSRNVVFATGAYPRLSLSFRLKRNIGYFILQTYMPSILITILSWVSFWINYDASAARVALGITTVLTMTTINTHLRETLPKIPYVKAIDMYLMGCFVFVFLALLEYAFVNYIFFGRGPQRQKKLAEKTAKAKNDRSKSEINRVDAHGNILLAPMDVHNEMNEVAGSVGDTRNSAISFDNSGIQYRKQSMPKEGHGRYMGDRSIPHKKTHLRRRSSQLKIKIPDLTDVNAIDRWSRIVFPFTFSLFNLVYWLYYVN
Procedure: as §2

[4] = oocyte co-expressing GABA-A and P2X2 receptors, FIG. 4

Structure (SMILES) | modification of the fluorescence on application [1] | fluorescence of the calcium probe on application of the substance alone [2] | fluorescence (calcium influx) on application of the substance alone (rat P2X2 receptors) | percentage inhibition of the ATP calcium response ([3]; co-application ATP+GABA 100 μM of each, depends on expression ratio of P2X and GABA receptors) | fluorescence intensity when GABA is applied at the peak of the ATP response [3, 4] | fluorescence when application of GABA is stopped during co-application of ATP and GABA [3, 4] | calcium response on co-application ATP+GABA compared with ATP alone ([2]; ATP+GABA 100 μM of each, FIG. 3) | effect of GABA on the increase in fluorescence induced by ATP (rat P2X2 receptors; co-application ATP+GABA)
Nc1ncnc2c1ncn2[C@@H]1O[C@H](COP(=O)(O)OP(=O)(O)OP(=O)(O)O)[C@@H](O)[C@H]1O [ATP] | No modification | marked transient increase | transient increase in fluorescence |  |  |  |  | 
NCCCC(=O)O [GABA, gamma-Aminobutyric acid] | No modification | does not modify fluorescence intensity | no effect | 20-25% | decrease in fluorescence intensity | increase in fluorescence | lower calcium response | not altered
